Results as given in patent US8252814B2, “Agents and crystals for improving excretory potency of urinary bladder” (priority 1998, dated 2012).
pIC50: −log10 of the molar value.

What was measured:
guinea pigs = test: Effect on the flow rate of urine in guinea pigs, single or combined use, Experimental Example 4; assay type: in vivo, Hartley male guinea pigs
Description: Effect on the flow rate of urine by single or combined use of Compounds of Reference Examples, distigmine, prazosin, and tamsulosin was examined using Hartley male guinea pigs. Four to six Hartley male guinea pigs weighing about 350 g (SLC) were employed in each treated group. Guinea pigs were anesthetized with urethane, and held, and the bladder was exposed. Two polyethylene tubes (PE-100) were inserted into the bladder. One of the tubes was used in infusion of physiological saline, and the other used for measurement of the internal pressure of the bladder. Saline was infused continuously at a flow rate of 0.3 mL/min. The infusion was stopped at the time when intermittent urination was confirmed at least 3 times, and the whole saline in bladder was removed. Again, infusion was started, and stopped at the time when a rise of the pressure in bladder was confirmed immediately before urination. Excreted urine was weighed on an electronic force balance (HX-400, A&D). Analogue data of the internal pressure of the bladder and urine weight were input in an AD converter (MP-30, Biopac Systems) and the digital signal was analyzed by means of purpose-made software (Student lab pro 2.1.5, Biopac Systems). Sampling interval of the date was fixed at 0.1 second, and the value of urine weight was differentiated to determine the flow rate of urine. In order to remove data noise of the excretion volume and flow rate of urine, the data was adapted to a lowcut filter at 0.5 Hz.
Measurement was made 2 times before administration of the test compound, and then the test compound was administered intravenously. Again, measurement was made 10 minutes after administration of the test compound.
The average measured value before administration of the test compounds was regarded as the value before administration, and the rate of change of the values from the ante-administration to the post-administration was calculated to compare between the groups by means of the Dunnet's test.

[1] = target: T1, acetylcholinesterase of human erythrocyte origin (Homo sapiens, UniProt P22303); test: Measurement of acetylcholinesterase-inhibiting action (acetylthiocholine / Ellman method), Experimental Example 1; assay type: biochemical; conditions: at least 3 experiments
T1 construct: Acetylcholinesterase of human erythrocyte origin (Sigma Chemical Co.); purchased Sigma Chemical Co; host or cells: human erythrocytes (natural source)
Procedure: Acetylcholinesterase-inhibiting action of the compounds disclosed in Reference Examples was measured using acetylcholinesterase of human erythrocyte origin according to the acetylthiocholine method (Ellman method).
Acetylcholinesterase of human erythrocyte origin (Sigma Chemical Co.) was dissolved in distilled water at a concentration of 0.2 IU/mL to give an enzyme authentic sample. To a 96-well microplate was dispensed 20 μL of drug solution, 30 μL of 80 mM Tris-HCl (pH 7.4), 50 μL of enzyme authentic sample and 50 μL of 5 mM 5,5-dithio-bis(2-nitrobenzoic acid) (Sigma Chemical Co.), and the plate was shaken for 10 seconds. Then, 50 μL of acetylthiocholine iodide (Sigma Chemical Co.) was added, and the plate was again shaken. Immediately after shaking, increase of extinction at […] was measured at intervals of 30 seconds for 10 minutes. The enzyme activity was determined according to the following equation.
The experiment was repeated at least 3 times for each compound to obtain 50% inhibitory concentration (IC50). Moreover, in the same manner as mentioned above, acetylcholinesterase-inhibiting activity of distigmine was measured.

[2] = target: T2, human erythrocyte-derived acetylcholine esterase (Homo sapiens, UniProt P22303); test: Determination of the activity to inhibit the acetylcholine esterase of the crystals (Ellman method), Experimental Example 5; assay type: biochemical; conditions: at least three experiments
T2 construct: Acetylcholinesterase of human erythrocyte origin (Sigma Chemical Co.); purchased Sigma Chemical Co; host or cells: human erythrocytes (natural source)
Procedure: The activity to inhibit the acetylcholine esterase of the crystals obtained in Example 1 was determined according to the acetylthiocholine method (the Ellman method) by the use of a human erythrocyte-derived acetylcholine esterase.
A human erythrocyte-derived acetylcholine esterase (Sigma Chemical Company) was dissolved into distilled water to obtain a standard enzyme preparation with an enzyme concentration of 0.2 IU/mL. […]
The activity to inhibit the acetylcholine esterase of the crystals obtained in Example 1 was determined according to the acetylthiocholine method (the ElIman method) by the use of a human erythrocyte-derived acetylcholine esterase.
A human erythrocyte-derived acetylcholine esterase (Sigma Chemical Company) was dissolved into distilled water to obtain a standard enzyme preparation with an enzyme concentration of 0.2 IU/mL. […] As soon as 50 μl of a 4-mM solution of acetylthiocholine iodide (Sigma Chemical Company) was added and shaking was started again, every increment in absorbance at the wavelength of 414 nm at an interval of 30 seconds was determined for 10 minutes. R=5.74×10^−7×ΔA (wherein R indicates an enzyme activity (mol) and ΔA indicates an increment in absorbance at the wavelength of 414 nm). […] Furthermore, the activity to inhibit the acetylcholine esterase of distigmine was determined in a manner similar to that described in the above method.

urinary bladder = test: Potentiation effect for rhythmic contraction of urinary bladder in guinea pig, Experimental Example 2; assay type: in vivo, Hartley male guinea pigs; conditions: Cavia porcellus, iv, read-out: AUC200 (mg/kg, i.v.)
Procedure: Potentiation effect of the compounds disclosed in Reference Examples for rhythmic contraction of urinary bladder was examined using Hartley male guinea pigs. Hartley male guinea pigs (SLC) weighing about 300 g were anesthetized with urethane (1.2 g/kg, i.p.), held, and incised at the midline of abdomen to expose the bladder. The urethra was ligated, and a polyethylene tube (PE-50) was inserted into the bladder. The internal pressure of the bladder was measured with a blood pressure amplifier (Nippon Koden), and the data was collected on a personal computer through an A/D converter (MP-30, Biopac Systems). A proper amount of physiological saline was injected into the bladder through a cannula to induce rhythmic contraction of the to bladder.
The area (AUC) that is formed by a curve of the internal pressure of the bladder and a base line was calculated through analytical software (Studentlab pro 2.1.5, Biopac Systems) to evaluate the effect of the test compounds. The curve of the internal pressure is made based on the bladder contraction immediately before administration of the test compound and the first contraction 5 minutes after the administration. From the dose-dependent curve of AUC, the dose at which AUC before drug administration was increased 2 times (AUC200) was calculated to determine potency of contraction-enhancing effect of the test compounds for the muscle of urinary bladder. In addition, the potency of contraction-enhancing effect of […] for the muscle of bladder was determined in the same manner as mentioned above.

T2 sequence (P22303 32-617 isoform P22303-2 limits assumed): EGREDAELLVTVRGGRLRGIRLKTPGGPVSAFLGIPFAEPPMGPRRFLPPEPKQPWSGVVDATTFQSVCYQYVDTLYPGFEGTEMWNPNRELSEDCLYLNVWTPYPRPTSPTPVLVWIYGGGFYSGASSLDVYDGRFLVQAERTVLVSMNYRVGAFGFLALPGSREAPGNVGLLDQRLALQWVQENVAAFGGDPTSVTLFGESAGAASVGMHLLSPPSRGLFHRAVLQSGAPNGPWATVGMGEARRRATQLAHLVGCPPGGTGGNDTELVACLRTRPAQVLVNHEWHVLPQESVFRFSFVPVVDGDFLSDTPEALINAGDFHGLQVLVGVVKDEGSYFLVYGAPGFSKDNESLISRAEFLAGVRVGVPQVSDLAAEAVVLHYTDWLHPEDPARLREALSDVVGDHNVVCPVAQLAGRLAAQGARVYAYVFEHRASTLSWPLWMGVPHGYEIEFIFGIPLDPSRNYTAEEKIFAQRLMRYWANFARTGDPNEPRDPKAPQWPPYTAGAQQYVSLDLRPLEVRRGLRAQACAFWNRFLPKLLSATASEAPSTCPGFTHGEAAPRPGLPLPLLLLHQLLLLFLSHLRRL
T1 sequence (P22303 32-617 isoform P22303-2 limits assumed): as above

Structure (SMILES): CN(CCCCCCN(C)C(=O)Oc1ccc[n+](C)c1)C(=O)Oc1ccc[n+](C)c1 [Distigmine, reference compound]
- improvement of the flow rate of urine (in words) (guinea pigs; conclusion from Tables 8 and 9, alone and in combination with α-blockers): poor and not enhanced even in combination with an α-blocker prazosin
- Flow Rate (mL/sec) Ante-admn. (guinea pigs; guinea pig, distigmine 1.0 mg/kg i.v. group, before administration (Table 8)): 0.25 ± 0.05 mL/s
- Flow Rate (mL/sec) Post-admn. (guinea pigs; guinea pig, distigmine 1.0 mg/kg i.v., 10 minutes after administration (Table 8)): 0.22 ± 0.05 mL/s
- Improvement (%) (guinea pigs; guinea pig, distigmine 1.0 mg/kg i.v., 10 minutes after administration, control DMSO (Table 8)): −8.31 ± 11.13%
- pIC50 [1]: 6.14
- pIC50 [2]: 6.19
- ED (2-fold bladder contraction AUC) (urinary bladder): 0.1 mg/kg
